Laboratory results reported in patent US20050288309A1, “Fungicidal mixtures” (priority 2002, published 2005).

Tested on: Plasmopara viticola
Assay: Activity against Peronospora of grapevines caused by Plasmopara viticola (protective spray test on potted vines)
Format: in vivo, cultivar Müller-Thurgau
Details: individual active compound, untreated control 70% infection
Protocol: The active compounds, separately or jointly, were prepared as a 10% emulsion in a mixture of 63% by weight of cyclohexanone and 27% by weight of emulsifier and diluted with water to the desired concentration.
Evaluation was carried out by determining the infected leaf areas in percent. These percentages were converted into efficacies. The efficacy (E) is calculated as follows using Abbot's formula: E=(1α/β)·100 • α corresponds to the fungicidal infection of the treated plants in % and • β corresponds to the fungicidal infection of the untreated (control) plants in %
An efficacy of 0 means that the infection level of the treated plants corresponds to that of the untreated control plants; an efficacy of 100 means that the treated plants were not infected.
The expected efficacies of the mixtures of active compounds are determined using Colby's formula [R. S. Colby, Weeds 15, 20-22 (1967)] and compared with the observed efficacies.
Colby's formula: E=x+y−x·y/100 • E expected efficacy, expressed in % of the untreated control, when using the mixture of the active compounds A and B at the concentrations a and b • x efficacy, expressed in % of the untreated control, when using active compound A at the concentration a • y efficacy, expressed in % of the untreated control, when using active compound B at the concentration b
Leaves of potted vines of the cultivar “Müller-Thurgau” were sprayed to runoff point with an aqueous suspension having the concentration of active compound stated below. The suspension or emulsion was prepared from a stock solution comprising 10% of active compound in a mixture consisting of 70% of cyclohexanone, 20% of wetting agent and 10% of emulsifier. The next day, the undersides of the leaves were inoculated with an aqueous zoospore suspension of Plasmopara viticola. The grapevines were then initially placed in a water-vapor-saturated chamber at 24° C. for 48 hours and then in a greenhouse at 20-30° C. for 5 days. After this period of time, the plants were again placed in a humid chamber for 16 hours to promote sporangiophore eruption. The extent of the development of the disease on the undersides of the leaves was then determined visually.

Row | SMILES | Efficacy in % of the untreated control (1 ppm in the spray liquor) | Efficacy in % of the untreated control (0.25 ppm in the spray liquor) | Efficacy in % of the untreated control (4 ppm in the spray liquor)
1 | COC(=O)N(OC)c1ccccc1COc1ccn(-c2ccc(Cl)cc2)n1 [II-6, pyraclostrobin, reference compound] | 29% |  | 
2 | CC1CCN(c2c(-c3c(F)cc(F)cc3F)c(Cl)nc3ncnn23)CC1 [I, 5-chloro-7-(4-methylpiperidin-1-yl)-6-(2,4,6-trifluorophenyl)-[1,2,4]triazolo[1,5-a]-pyrimidine] | 0% | 0% | 29%
